Test results: patent US20240294541A1, “COMPOUNDS CONSTITUTING C20-MODIFIED SALINOMYCIN DERIVATIVES, A METHOD FOR OBTAINING THE SAME, A COMPOSITION CONTAINING THE SAME AND A USE OF SAID COMPOUNDS” (FILECLO SPOLKA Z OGRANICZONA ODPOWIEDZIALNOSCIA, priority 2021, published 2024)
Like-named read-outs stand apart in the source and are kept apart here.

Legend:
Type in all cases: cell-based
[1] = tested on: BALB/3T3 (normal mouse fibroblasts); test: In vitro cytotoxicity, SRB assay, normal BALB/3T3 fibroblasts
[2] = tested on: SNU-16 (human gastric cancer); test: cells; conditions: for SI SNU-16: selectivity coefficient vs normal BALB/3T3 fibroblasts
[3] = tested on: MV-4-11 (human biphenotypic leukaemia); test: In vitro cytotoxicity, MTT assay, MV-4-11; conditions: for IC50: Homo sapiens, MV4-11, read-out: IC50 (nM) MV4-11
[4] = tested on: NCI-H358 (human lung cancer); test: cells; conditions: for SI NCI-H358: selectivity coefficient vs normal BALB/3T3 fibroblasts
[5] = tested on: MIA PaCa-2 (human pancreatic cancer); test: cells; conditions: for SI MIA PaCa-2: selectivity coefficient vs normal BALB/3T3 fibroblasts
[6] = tested on: A2780Cis (cisplatin-resistant human ovarian cancer); test: In vitro cytotoxicity, SRB assay, A2780Cis; conditions: for IC50: Homo sapiens, A2780cis, read-out: IC50 (nM) A2780Cis
[7] = tested on: PLC/PRF/5 (human liver cancer); test: cells; conditions: for SI PLC/PRF/5: selectivity coefficient vs normal BALB/3T3 fibroblasts
Hs294T (human melanoma) = test: cells; conditions: for IC50: Hs 294T, read-out: IC50 (nM) Hs294T; for SI Hs294T: selectivity coefficient vs normal BALB/3T3 fibroblasts
[8] = Table 4, BALB/3T3 normal mouse fibroblasts, read-out: IC50 (nM) BALB3T3 normal cells
[9] = Table 4, SNU-16 human gastric cancer cells, read-out: IC50 (nM) SNU-16
[10] = Table 4, NCI-H358 human lung cancer cells, read-out: IC50 (nM) NCI-H358
[11] = Table 4, MIA PaCa-2 human pancreatic cancer cells, read-out: IC50 (nM) MIA PaCa-2
[12] = Table 4, PLC/PRF/5 human liver cancer cells, read-out: IC50 (nM) PLC/PRF/5
[13] = Table 4, Hs294T human melanoma cells

| Structure (SMILES) | IC50 [1, 8] | IC50 [2, 9] | SI SNU-16 ([2]; Table 4) | SI MV4-11 [3] | IC50 [3] | IC50 [4, 10] | SI NCI-H358 ([4]; Table 4) | IC50 [5, 11] | SI MIA PaCa-2 ([5]; Table 4) | SI A2780Cis [6] | IC50 [6] | IC50 [7, 12] | SI PLC/PRF/5 ([7]; Table 4) | IC50 (Hs294T (human melanoma); [13]) | SI Hs294T (Hs294T (human melanoma); Table 4) | also measured |
| --- | --- | --- | --- | --- | --- | --- | --- | --- | --- | --- | --- | --- | --- | --- | --- | --- |
| CC[C@@H](C(=O)[C@@H](C)[C@@H](O)[C@H](C)[C@@H]1O[C@@H]([C@@H](CC)C(=O)O)CC[C@@H]1C)[C@H]1O[C@]2(C=C[C@@H](NC(=O)OC(CCl)CCl)[C@]3(CC[C@@](C)([C@H]4CC[C@](O)(CC)[C@H](C)O4)O3)O2)[C@H](C)C[C@@H]1C [FLC-00440-1•Na] | 115 nM | 400 nM | 0.3 | 32.6 | 3.52 nM | 60.2 nM | 1.91 | 43.6 nM | 2.6 | 26.1 | 4.41 nM | 9.5 nM | 12.1 | 130 nM | 0.9 |  |
| CC[C@@H](C(=O)[C@@H](C)[C@@H](O)[C@H](C)[C@@H]1O[C@@H]([C@@H](CC)C(=O)O)CC[C@@H]1C)[C@H]1O[C@]2(C=C[C@@H](NC(=O)Nc3ccc(Cl)c(Cl)c3)[C@]3(CC[C@@](C)([C@H]4CC[C@](O)(CC)[C@H](C)O4)O3)O2)[C@H](C)C[C@@H]1C [FLC-00370-1•Na] | 4400 nM | 1520 nM | 2.9 | 106.9 | 41.2 nM | 826 nM | 5.33 | 489 nM | 9.0 | 134.5 | 32.7 nM | 144 nM | 30.5 | 1860 nM | 2.4 |  |
| CC[C@@H](C(=O)[C@@H](C)[C@@H](O)[C@H](C)[C@@H]1O[C@@H]([C@@H](CC)C(=O)O)CC[C@@H]1C)[C@H]1O[C@]2(C=C[C@@H](NC(=O)OCC(F)(F)F)[C@]3(CC[C@@](C)([C@H]4CC[C@](O)(CC)[C@H](C)O4)O3)O2)[C@H](C)C[C@@H]1C [FLC-00395-1•Na] |  |  | 0.8 | 177.2 | 0.44 nM |  | 0.65 |  | 2.4 | 43.8 | 1.78 nM |  | 2.1 |  | 1.6 | IC50 ([1]; Mus musculus, BALB/3T3, read-out: IC50 (nM) BALB3T3 normal cells): 78 nM; IC50 ([2]; Homo sapiens, SNU-16, read-out: IC50 (nM) SNU-16): 104 nM; IC50 ([4]; Homo sapiens, NCI-H358, read-out: IC50 (nM) NCI-H358): 121 nM; IC50 ([5]; Homo sapiens, MIA PaCa-2, read-out: IC50 (nM) MIA PaCa-2): 33.1 nM; IC50 ([7]; Homo sapiens, PLC-PRF-5, read-out: IC50 (nM) PLC/PRF/5): 37.5 nM; IC50 (Hs294T (human melanoma); Homo sapiens): 47.3 nM |
| CC[C@@H](C(=O)[C@@H](C)[C@@H](O)[C@H](C)[C@@H]1O[C@@H]([C@@H](CC)C(=O)O)CC[C@@H]1C)[C@H]1O[C@]2(C=C[C@@H](NC(=O)C(N)=O)[C@]3(CC[C@@](C)([C@H]4CC[C@](O)(CC)[C@H](C)O4)O3)O2)[C@H](C)C[C@@H]1C [FLC-00376-1•Na] | 4640 nM |  |  | 7.0 | 663 nM | 5310 nM | 0.87 | 1850 nM | 2.5 | 10.6 | 436 nM | 1360 nM | 3.4 |  |  |  |
| CC[C@@H](C(=O)[C@@H](C)[C@@H](O)[C@H](C)[C@@H]1O[C@@H]([C@@H](CC)C(=O)O)CC[C@@H]1C)[C@H]1O[C@]2(C=C[C@@H](NC(=S)NC(C)C)[C@]3(CC[C@@](C)([C@H]4CC[C@](O)(CC)[C@H](C)O4)O3)O2)[C@H](C)C[C@@H]1C [FLC-00387-1] |  | 10.2 nM |  |  |  | 44.4 nM |  | 9.71 nM |  |  |  | 0.7 nM |  | 162 nM |  |  |
| CC[C@@H](C(=O)[C@@H](C)[C@@H](O)[C@H](C)[C@@H]1O[C@@H]([C@@H](CC)C(=O)O)CC[C@@H]1C)[C@H]1O[C@]2(C=C[C@@H](NC(=O)Nc3c(F)c(F)c(F)c(F)c3F)[C@]3(CC[C@@](C)([C@H]4CC[C@](O)(CC)[C@H](C)O4)O3)O2)[C@H](C)C[C@@H]1C [FLC-00428-1•Na] | 244 nM | 114 nM | 2.1 | 182.9 | 1.34 nM | 57.3 nM | 4.27 | 36.9 nM | 6.6 | 56.0 | 4.36 nM | 7.85 nM | 31.1 | 173 nM | 1.4 |  |
| CC[C@@H](C(=O)[C@@H](C)[C@@H](O)[C@H](C)[C@@H]1O[C@@H]([C@@H](CC)C(=O)O)CC[C@@H]1C)[C@H]1O[C@]2(C=C[C@@H](NC(=O)C(=O)NCC3CC3)[C@]3(CC[C@@](C)([C@H]4CC[C@](O)(CC)[C@H](C)O4)O3)O2)[C@H](C)C[C@@H]1C [FLC-00442-1•Na] | 754 nM | 1120 nM | 0.7 | 38.9 | 19.4 nM | 340 nM | 2.22 | 102 nM | 7.4 | 32.3 | 23.3 nM | 53.9 nM | 14.0 | 1710 nM | 0.4 |  |
